Results as given in patent US20260191849A1, “PHARMACEUTICAL COMPOSITION FOR TREATMENT OF CANCER” (WIGEN BIOMEDICINE TECHNOLOGY (SHANGHAI) CO., LTD., priority 2022, published 2026).
pIC50: −log10 of the molar value. Read-outs that look alike come from different tables or passages of the source.

Columns and labels:
Format in all cases: cell-based
SK-OV-3 cells = assay: Combined use of compound 257 or AMG650 with PLK1 inhibitor on SK-OV-3 cell viability, 168 h (Biological Example 21); conditions: for pIC50: Homo sapiens, SK-OV-3, 168 h
Method: (§1) SK—OV-3 cells were seeded on a 384-well plate at 3000 cells/well. After overnight adherence culture, DMSO or compound 257 or AMG650 serially diluted in a 1:5 ratio from 400 nM and a PLK1 inhibitor with a specified concentration were added. The cell viability was assessed 168 h after dosing by measuring the intracellular ATP content. […] Furthermore, interactions between the drugs were also analyzed using the BLISS independence model, and the results are shown in FIG. 11 and FIG. 12.

HT29 cells [1] = assay: Combined use of compound 257 or AMG650 with PLK1 inhibitor (Volasertib) on HT29 cell viability, 168 h (Biological Example 22); conditions: for pIC50: Homo sapiens, HT-29, 168 h
Method: as §1, with “HT29” for “SK—OV-3”, “15” for “11”, “16.” for “12.”

HCT116 cells [2] = assay: Combined use of compound 257, AMG650 or Compound A with PLK1 inhibitor on HCT116 cell viability, 168 h (Biological Example 20)
Method: (§2) HCT116 cells were seeded on a 384-well plate at 3000 cells/well. After overnight adherence culture, DMSO or compound 257, AMG650, or Compound A serially diluted in a 1:5 ratio from 400 nM and a PLK1 inhibitor with a specified concentration were added. The cell viability was assessed 168 h after dosing by measuring the intracellular ATP content. The inhibition percentages of viable cells by the compounds were calculated by comparing with the DMSO group, and the IC50 values were also calculated.

HT29 cells [3] = assay: Combined use of compound 257 or AMG650 with PLK1 inhibitor on HT29 cell viability, 168 h (Biological Example 7); conditions: for Maximum inhibition rate / Minimum inhibition rate / pIC50: HT29 cells; for pIC50: Homo sapiens, HT-29, 168 h
Method: as §2, with “HT29” for “HCT116”, “257” for “257, AMG650,”, “AMG650” for “Compound A”

HCT116 cells [4] = assay: In vitro anti-proliferative activity against HCT116 cells (Biological Example 2); conditions: in words, from Table 4
Method: as §2, with “the compounds” for “compound 257, AMG650, or Compound A”, “5 μM” for “400 nM and a PLK1 inhibitor with a specified concentration”, “72” for “168”

HT29 cells [5] = assay: Combined use of compound 257, AMG650 or Compound A with PLK1 inhibitor on HT29 cell viability, 168 h (Biological Example 19); conditions: for pIC50: Homo sapiens, HT-29, 168 h, HT29 cells, read-out: IC50
Method: HT29 cells were seeded on a 384-well plate at 3000 cells/well.

HCT116 cells [6] = assay: Combined use of compound 257 or AMG650 with PLK1 inhibitor on HCT116 cell viability, 168 h (Biological Example 8)
Method: as §2, with “257” for “257, AMG650,”, “AMG650” for “Compound A”, “10 μM” for “400 nM”

Q: How did the “inhibitory effect on SK-OV-3 cells, combined use with the PLK1 inhibitor compared with monotherapy” value (SK-OV-3 cells; 168 h, Volasertib, in words) turn out when `Cc1cc(NC(=O)c2ccc(NS(=O)(=O)CCO)cc2N2CCC3(CC2)CC3)nc(N2CCC(F)(F)CC2)n1` [AMG650] was run?
A: Its value is “stronger inhibitory effect”.

Q: And the pIC50 (SK-OV-3 cells)?
A: The pIC50 was 7.18.

Q: And the pIC50 (SK-OV-3 cells; SK-OV-3 cells, 168 h, Volasertib 0.0001 nM, read-out: IC50)?
A: Its pIC50 is 7.14.

Q: And the pIC50 (SK-OV-3 cells; SK-OV-3 cells, 168 h, Volasertib 6.25 nM, read-out: IC50)?
A: The pIC50 was 7.29.

Q: What about the pIC50 (SK-OV-3 cells; SK-OV-3 cells, 168 h, Volasertib 12.5 nM, read-out: IC50) of the same compound?
A: Its pIC50 is 7.46.

Q: What about the pIC50 (SK-OV-3 cells; SK-OV-3 cells, 168 h, Volasertib 25 nM, read-out: IC50) of the same compound?
A: The pIC50 was 7.57.

Q: And the pIC50 (SK-OV-3 cells; SK-OV-3 cells, 168 h, Volasertib 50 nM, read-out: IC50)?
A: Its pIC50 is 7.95.

Q: What about the “inhibitory effect on HT-29 cells, combined use with the PLK1 inhibitor compared with monotherapy” value (HT29 cells [1]; 168 h, Volasertib, in words) of the same compound?
A: Its value is “stronger inhibitory effect”.

Q: What about the pIC50 (HT29 cells [1]) of the same compound?
A: Its pIC50 is 7.52.

Q: What about the pIC50 (HT29 cells [1]; HT29 cells, 168 h, Volasertib 0.0001 nM, read-out: IC50) of the same compound?
A: Its pIC50 is 7.10.

Q: What about the pIC50 (HT29 cells [1]; HT29 cells, 168 h, Volasertib 3.13 nM, read-out: IC50) of the same compound?
A: Its pIC50 is 7.37.

Q: What about the pIC50 (HT29 cells [1]; HT29 cells, 168 h, Volasertib 12.5 nM, read-out: IC50) of the same compound?
A: The pIC50 was 7.85.

Q: What about the pIC50 (HT29 cells [1]; HT29 cells, 168 h, Volasertib 25 nM, read-out: IC50) of the same compound?
A: Its pIC50 is 8.23.

Q: And the “synergistic effect on HCT116 cell viability, combined use with the PLK1 inhibitor” value (HCT116 cells [2]; CYC140 or TAK-960, in words)?
A: Its value is “no significant synergistic effect”.

Q: And the pIC50 (HCT116 cells [2]; HCT116 cells, CYC140 (Plogosertib) 1.6 nM)?
A: Its pIC50 is less than 6.40.

Q: What about the pIC50 (HCT116 cells [2]; HCT116 cells, CYC140 (Plogosertib) 8 nM) of the same compound?
A: The pIC50 was less than 6.40.

Q: And the pIC50 (HCT116 cells [2]; HCT116 cells, CYC140 (Plogosertib) 40 nM)?
A: The pIC50 was less than 6.40.

Q: What about the pIC50 (HCT116 cells [2]; HCT116 cells, TAK-960 0 nM) of the same compound?
A: The pIC50 was less than 6.40.

Q: What about the pIC50 (HCT116 cells [2]; HCT116 cells, TAK-960 1.6 nM) of the same compound?
A: The pIC50 was less than 6.40.

Q: And the pIC50 (HCT116 cells [2]; HCT116 cells, TAK-960 8 nM)?
A: The pIC50 was less than 6.40.

Q: And the pIC50 (HCT116 cells [2]; HCT116 cells, TAK-960 40 nM)?
A: The pIC50 was less than 6.40.

Q: And the pIC50 (HCT116 cells [2]; Homo sapiens, HCT-116, HCT116 cells, CYC140 (Plogosertib) 0 nM)?
A: Its pIC50 is less than 6.40.

Q: And the “anti-proliferative activity against HCT116 cells, monotherapy” value (HCT116 cells [2]; in words)?
A: Its value is “did not exhibit anti-proliferative activity”.

Q: What about the Maximum inhibition rate (HT29 cells [3]; Volasertib 0 nM) of the same compound?
A: Its Maximum inhibition rate is 96.5%.

Q: And the Minimum inhibition rate (HT29 cells [3]; Volasertib 0 nM)?
A: Its Minimum inhibition rate is −1.4%.

Q: What about the Maximum inhibition rate (HT29 cells [3]; Volasertib 3.12 nM) of the same compound?
A: Its Maximum inhibition rate is 95.8%.

Q: And the Minimum inhibition rate (HT29 cells [3]; Volasertib 3.12 nM)?
A: The Minimum inhibition rate was 3.3%.

Q: And the Maximum inhibition rate (HT29 cells [3]; Volasertib 6.25 nM)?
A: The Maximum inhibition rate was 97.0%.

Q: What about the Minimum inhibition rate (HT29 cells [3]; Volasertib 6.25 nM) of the same compound?
A: Its Minimum inhibition rate is −0.4%.

Q: What about the pIC50 (HT29 cells [3]; Volasertib 0 nM) of the same compound?
A: Its pIC50 is 7.07.

Q: And the pIC50 (HT29 cells [3]; Volasertib 3.12 nM)?
A: The pIC50 was 7.58.

Q: What about the pIC50 (HT29 cells [3]; Volasertib 6.25 nM) of the same compound?
A: The pIC50 was 7.79.

Q: What about the “inhibitory effect on HT-29 cells, combined use with the PLK1 inhibitor compared with monotherapy” value (HT29 cells [3]; Volasertib, in words) of the same compound?
A: Its value is “stronger inhibitory effect”.

Q: What about the “anti-proliferative activity against HCT116 cells” value (HCT116 cells [4]) of the same compound?
A: The value was “neither the compounds of the present disclosure nor AMG65 exhibited anti-proliferative activity”.

Q: And the “inhibitory effect on HT-29 cells, combined use with the PLK1 inhibitor compared with monotherapy” value (HT29 cells [5]; CYC140 or TAK-960, in words)?
A: Its value is “stronger inhibitory effect”.

Q: What about the pIC50 (HT29 cells [5]; CYC140 (Plogosertib) 0.0001 nM) of the same compound?
A: Its pIC50 is 7.04.

Q: And the pIC50 (HT29 cells [5]; CYC140 (Plogosertib) 1.6 nM)?
A: The pIC50 was 7.13.

Q: What about the pIC50 (HT29 cells [5]; CYC140 (Plogosertib) 8 nM) of the same compound?
A: The pIC50 was 7.30.

Q: And the pIC50 (HT29 cells [5]; CYC140 (Plogosertib) 40 nM)?
A: Its pIC50 is 7.95.

Q: What about the pIC50 (HT29 cells [5]; TAK-960 0.0001 nM) of the same compound?
A: The pIC50 was 7.05.

Q: And the pIC50 (HT29 cells [5]; TAK-960 1.6 nM)?
A: Its pIC50 is 7.23.

Q: And the pIC50 (HT29 cells [5]; TAK-960 8 nM)?
A: Its pIC50 is 7.78.

Q: What about the pIC50 (HT29 cells [5]; TAK-960 40 nM) of the same compound?
A: Its pIC50 is 7.79.

Q: What about the pIC50 (HCT116 cells [6]; HCT116 cells, Volasertib 3.12 nM) of the same compound?
A: The pIC50 was less than 5.00.

Q: And the pIC50 (HCT116 cells [6]; HCT116 cells, Volasertib 6.25 nM)?
A: Its pIC50 is less than 5.00.

Q: And the pIC50 (HCT116 cells [6]; Homo sapiens, HCT-116, HCT116 cells, Volasertib 0 nM)?
A: The pIC50 was less than 5.00.

Q: And the “synergistic effect on HCT116 cell viability, combined use with the PLK1 inhibitor” value (HCT116 cells [6]; Volasertib, in words)?
A: Its value is “no significant synergistic effect”.

Q: And the “anti-proliferative activity against HCT116 cells, monotherapy” value (HCT116 cells [6]; in words)?
A: Its value is “did not exhibit anti-proliferative activity”.
